# Test results from ChEMBL document CHEMBL1134061, “Synthesis and biological evaluations of condensed pyridine and condensed pyrimidine-based HMG-CoA reductase inhibitors” (Bioorg Med Chem Lett, 2001).
# Key:
# [1] = target: T1, 3-hydroxy-3-methylglutaryl-coenzyme A reductase (Homo sapiens) (UniProt P04035); experiment: In vitro HMG-CoA reductase inhibitory activity required to inhibit cellular steroidgenesis in Hep G2 cells (human hepatoma cell line) with pravastatin as reference compound; format: cell-based; conditions: HepG2
# T1 sequence (whole entry): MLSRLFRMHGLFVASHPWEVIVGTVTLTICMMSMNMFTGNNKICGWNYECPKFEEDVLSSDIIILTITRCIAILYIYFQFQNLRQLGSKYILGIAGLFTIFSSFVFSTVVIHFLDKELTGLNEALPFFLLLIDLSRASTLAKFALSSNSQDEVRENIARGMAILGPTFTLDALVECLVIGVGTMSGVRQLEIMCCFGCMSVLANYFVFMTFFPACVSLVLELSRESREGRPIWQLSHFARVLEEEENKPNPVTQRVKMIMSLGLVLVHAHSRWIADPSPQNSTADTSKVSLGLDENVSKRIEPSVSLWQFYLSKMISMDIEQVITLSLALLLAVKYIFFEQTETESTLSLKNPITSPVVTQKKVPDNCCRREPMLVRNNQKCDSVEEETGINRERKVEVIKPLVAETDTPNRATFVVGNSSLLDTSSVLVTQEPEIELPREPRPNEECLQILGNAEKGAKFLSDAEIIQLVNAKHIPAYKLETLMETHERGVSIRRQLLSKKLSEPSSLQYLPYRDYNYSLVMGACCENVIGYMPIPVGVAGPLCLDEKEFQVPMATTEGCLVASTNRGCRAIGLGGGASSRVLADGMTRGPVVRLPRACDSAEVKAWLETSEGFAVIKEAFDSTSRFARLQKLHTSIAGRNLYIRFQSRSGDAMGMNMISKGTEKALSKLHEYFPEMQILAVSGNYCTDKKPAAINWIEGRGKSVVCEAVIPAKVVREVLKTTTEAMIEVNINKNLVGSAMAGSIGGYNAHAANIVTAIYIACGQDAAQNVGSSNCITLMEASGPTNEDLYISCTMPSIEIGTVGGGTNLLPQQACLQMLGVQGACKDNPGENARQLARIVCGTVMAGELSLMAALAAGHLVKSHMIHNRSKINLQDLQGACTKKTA
# [2] = target: T2, 3-hydroxy-3-methylglutaryl-coenzyme A reductase (Rattus norvegicus) (UniProt P51639); experiment: In vivo hepatic cholesterol synthesis inhibitory activity in male Sprague-Dawley rat after oral administration at a concentration of 0.2 mg/kg; format: functional, organism-based; set-up: dose 0.2 mg/kg
# T2 sequence (whole entry): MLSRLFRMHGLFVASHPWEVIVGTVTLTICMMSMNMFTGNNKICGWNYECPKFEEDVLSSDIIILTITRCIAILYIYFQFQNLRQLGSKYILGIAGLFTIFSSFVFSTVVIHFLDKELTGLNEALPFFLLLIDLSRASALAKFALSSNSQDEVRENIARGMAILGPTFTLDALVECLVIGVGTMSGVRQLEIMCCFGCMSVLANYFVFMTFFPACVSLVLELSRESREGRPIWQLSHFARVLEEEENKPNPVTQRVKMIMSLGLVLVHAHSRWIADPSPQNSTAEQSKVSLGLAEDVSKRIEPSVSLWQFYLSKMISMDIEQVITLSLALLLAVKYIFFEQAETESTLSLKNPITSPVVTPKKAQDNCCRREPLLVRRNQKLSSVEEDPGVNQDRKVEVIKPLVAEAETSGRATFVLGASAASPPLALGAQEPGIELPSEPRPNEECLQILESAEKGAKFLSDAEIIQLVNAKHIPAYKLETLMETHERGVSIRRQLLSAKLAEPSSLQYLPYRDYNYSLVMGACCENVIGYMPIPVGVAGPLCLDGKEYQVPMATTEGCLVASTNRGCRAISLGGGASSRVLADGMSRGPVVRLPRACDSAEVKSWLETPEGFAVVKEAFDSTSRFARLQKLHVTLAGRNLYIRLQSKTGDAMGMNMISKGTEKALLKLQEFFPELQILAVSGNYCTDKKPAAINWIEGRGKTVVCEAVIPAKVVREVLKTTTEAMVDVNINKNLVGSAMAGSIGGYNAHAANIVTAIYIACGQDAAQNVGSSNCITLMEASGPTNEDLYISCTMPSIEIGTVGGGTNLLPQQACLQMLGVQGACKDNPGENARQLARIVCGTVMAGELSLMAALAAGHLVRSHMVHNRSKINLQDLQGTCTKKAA
# [3] = target: T2, 3-hydroxy-3-methylglutaryl-coenzyme A reductase (Rattus norvegicus); experiment: In vivo hepatic cholesterol synthesis inhibitory activity in male Sprague-Dawley rat after oral administration at a concentration of 2.0 mg/kg; format: functional, organism-based; set-up: dose 2 mg/kg
# [4] = target: T2, 3-hydroxy-3-methylglutaryl-coenzyme A reductase (Rattus norvegicus); experiment: In vitro rat HMG-CoA reductase inhibitory activity required to inhibit sterol synthesis in cell free system with pravastatin as reference compound
# [5] = target: T3, 3-hydroxy-3-methylglutaryl-coenzyme A reductase (Rattus norvegicus, UniProt P51639); experiment: In vitro HMG-CoA reductase inhibitory activity to inhibit sterol synthesis in cell free system in rat
# T3 sequence (P51639 whole entry): T2 sequence (whole entry)
Compound,Relative potency [1],inhibition [2] [%],inhibition [3] [%],Relative potency [4],IC50 [5] [nM]
Cc1nn(-c2ccccc2)c2nc(C(C)C)c(/C=C/[C@@H](O)C[C@@H](O)CC(=O)O)c(-c3ccc(F)cc3)c12,1,3.3,19.9,264,–
CC[C@H](C)C(=O)O[C@H]1C[C@H](O)C=C2C=C[C@H](C)[C@H](CC[C@@H](O)C[C@@H](O)CC(=O)O)[C@H]21 [PRAVASTATIN SODIUM],–,35.4,27.8,–,4.2
Cc1nn(C(C)(C)C)c2nc(C3CC3)c(/C=C/[C@@H](O)C[C@@H](O)CC(=O)O)c(-c3ccc(F)cc3)c12,11,4.5,72.2,168,–
